For assay [1], the target named is Cholinesterase (Equus caballus, UniProt P81908). Description: Inhibition of Equus caballus (horse) serum butyrylcholinesterase (BChE) assessed as inhibition of BTCh hydrolysis by Ellman method. A general note: In Ellman's method for cholinesterases, released thiocholine reacts with DTNB.
The target of assay [2] is Cholinesterase (Equus caballus) (UniProt P81908). Description: Reversible mixed-type inhibition of Equus caballus (horse) serum butyrylcholinesterase (BChE) assessed as inhibition of BTCh hydrolysis by Ellman method.
Chain of Cholinesterase (Equus caballus) (P81908 whole entry): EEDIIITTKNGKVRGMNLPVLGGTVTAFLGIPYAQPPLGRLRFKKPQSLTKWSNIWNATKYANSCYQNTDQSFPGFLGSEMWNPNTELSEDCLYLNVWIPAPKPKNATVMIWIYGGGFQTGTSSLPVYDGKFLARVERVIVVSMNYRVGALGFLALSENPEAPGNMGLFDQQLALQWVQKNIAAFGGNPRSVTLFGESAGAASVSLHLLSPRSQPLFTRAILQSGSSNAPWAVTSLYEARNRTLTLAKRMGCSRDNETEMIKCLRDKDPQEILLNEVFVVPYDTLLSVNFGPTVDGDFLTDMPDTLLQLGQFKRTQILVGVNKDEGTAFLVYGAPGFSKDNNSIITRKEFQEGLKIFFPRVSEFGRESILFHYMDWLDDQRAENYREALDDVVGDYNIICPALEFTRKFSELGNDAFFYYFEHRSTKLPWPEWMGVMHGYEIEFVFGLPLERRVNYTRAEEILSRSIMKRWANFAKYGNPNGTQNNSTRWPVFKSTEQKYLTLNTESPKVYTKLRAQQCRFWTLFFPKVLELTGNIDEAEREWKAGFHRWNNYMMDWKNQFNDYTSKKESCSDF
Assay [3] addresses Acetylcholinesterase (Electrophorus electricus, UniProt O42275). In words: Inhibition of Electrophorus electricus (electric eel) acetylcholinesterase (AChE) assessed as inhibition of ATCh hydrolysis by Ellman method.

Structures can show the parent of a compound that is named as a salt. Calls of active or inactive are those of the source. The rule behind the calls is not given here.

The text below walks through data of ChEMBL document CHEMBL3046476, “Qsar for Acetylcholinesterase and Butyrylcholinesterase Inhibition by Cardiovascular Drugs and Benzodiazepines” (Med Chem Res, 2005).

Chain of Cholinesterase (P81908 whole entry): as above
Chain of Acetylcholinesterase (O42275 whole entry): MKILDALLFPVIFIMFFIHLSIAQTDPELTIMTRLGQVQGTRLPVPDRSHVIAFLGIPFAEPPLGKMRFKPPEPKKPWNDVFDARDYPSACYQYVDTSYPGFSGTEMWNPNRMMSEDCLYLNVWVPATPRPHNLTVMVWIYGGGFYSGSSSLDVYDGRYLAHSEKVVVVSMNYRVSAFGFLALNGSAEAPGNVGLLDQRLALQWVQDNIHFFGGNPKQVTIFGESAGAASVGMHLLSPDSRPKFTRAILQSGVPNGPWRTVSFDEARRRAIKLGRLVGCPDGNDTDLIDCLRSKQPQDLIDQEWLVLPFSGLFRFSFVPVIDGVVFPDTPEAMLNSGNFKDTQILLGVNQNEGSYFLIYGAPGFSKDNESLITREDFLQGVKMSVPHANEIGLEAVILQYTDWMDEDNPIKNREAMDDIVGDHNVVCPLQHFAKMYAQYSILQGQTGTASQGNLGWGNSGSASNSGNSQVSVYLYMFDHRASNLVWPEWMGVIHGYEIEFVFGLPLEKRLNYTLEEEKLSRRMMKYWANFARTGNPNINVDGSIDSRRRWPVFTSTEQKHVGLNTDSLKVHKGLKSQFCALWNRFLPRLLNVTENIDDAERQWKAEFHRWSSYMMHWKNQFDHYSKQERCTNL

As to `COC(=O)C1=C(C)NC(C)=C(C(=O)OC)C1c1ccccc1[N+](=O)[O-]` [NIFEDIPINE], the Ki was 1.2 µM in assay [1] (read-out: Ki), 5.01 µM in assay [1] (read-out: pKi (converted)), 4 µM in assay [3] (read-out: Ki) and 251 µM in assay [3] (read-out: pKi (converted)). Also, the inhibition entry in assay [2] is “Active”.
With `CNC1=Nc2ccc(Cl)cc2C(c2ccccc2)=[N+]([O-])C1`, in assay [2], the inhibition result is “Active”.
Regarding `CN1C(=O)CN=C(c2ccccc2)c2cc(Cl)ccc21` [DIAZEPAM], the inhibition result in assay [2] is “Active”. Besides, the Ki was 13 µM in assay [3] (read-out: Ki) and 251 µM in assay [3] (read-out: pKi (converted)).
In the case of `CCC(C)(C)C(=O)O[C@H]1C[C@@H](C)C=C2C=C[C@H](C)[C@H](CC[C@@H]3C[C@@H](O)CC(=O)O3)[C@H]21` [SIMVASTATIN], the Ki was 0.75 µM in assay [1] (read-out: Ki), 5.01 µM in assay [1] (read-out: pKi (converted)), 1.8 µM in assay [3] (read-out: Ki) and 251 µM in assay [3] (read-out: pKi (converted)).
For the molecule `CC[C@H](C)C(=O)O[C@H]1C[C@@H](C)C=C2C=C[C@H](C)[C@H](CC[C@@H]3C[C@@H](O)CC(=O)O3)[C@H]21` [LOVASTATIN], the Ki in assay [1] (read-out: Ki) was 1.1 µM; in assay [1] (read-out: pKi (converted)), 5.01 µM; in assay [3] (read-out: Ki), 2.7 µM; in assay [3] (read-out: pKi (converted)) it was 251 µM. In assay [2], the inhibition entry was “Active”.
Consider `CCOC(=O)C1=C(COCCN)NC(C)=C(C(=O)OC)C1c1ccccc1Cl` (centres undefined), for which the inhibition entry in assay [2] is “Active”.
Regarding `NNc1nncc2ccccc12` [HYDRALAZINE HYDROCHLORIDE], the Ki is 1.9 µM in assay [1] (read-out: Ki), 5.01 µM in assay [1] (read-out: pKi (converted)), 7 µM in assay [3] (read-out: Ki) and 251 µM in assay [3] (read-out: pKi (converted)). In addition, the inhibition result in assay [2] is “Active”.
